The results in this text go back to US8598383B2, “Pharmaceutical composition for treating or preventing degenerative and inflammatory diseases” (Neurotech Pharmaceuticals Co., Ltd., priority 2006, dated 2013).

This assay deals with collagen-induced arthritis. The assay can be described thus: Collagen-induced arthritis model (arthritic index). Format: in vivo, mouse. Conditions: 25 mg/kg/day intraperitoneal. The protocol:
FIG. 15 is results showing efficacy through arthritis animal model induced by collagen. 25 mg/kg of compound 2, 3 or 18, or methotrexate (control, MTX, 1 mg/kg/week) was intraperitoneally injected after administration of collagen.
FIG. 16 is results showing efficacy of compounds 6 and 11 through arthritis animal model induced by collagen. Collagen was intradermally injected two times with 2 week-interval. One week later, compound 6, compound 11 and methotrexate (control) were intraperitoneally injected. Then, the animals were observed everyday for 2-3 weeks, and results was evaluated by arthritis index.
To evaluate the efficacy of the 2-hydroxybenzoic acid derivative, collagen-induced arthritis model (rheumarthritis animal model) was used. Bovine type II collagen was mixed with complete Freund's adjuvant to make an emulsion, and the emulsion was intradermally injected into the origin site of 8˜10 week-old DBA/1LacJ mouse tail. Intradermal boosting was performed by the same method 2 weeks later. 25 mg/kg/day of compounds 2, 3 and 18, 1 mg/kg/week of methotrexate (comparative example) or 10% vehicle (control) were intraperitoneally injected one week after the second intradermal injection of collagen (FIG. 15). Pictures of foot edema of normal rat (sham), collagen-administered rat (collagen) and compound 18-administered rat (compound 18, 25 mg/kg/day injection) were shown in FIG. 14.
In addition, 50 mg/kg/day of compounds 6 and 11, and 5 mg/kg/2 days of methotrexate (comparative example) were intraperitoneally injected. Phosphate buffered saline was injected as control (FIG. 16). For 2˜3 weeks, the degree of arthritis was observed everyday, and the result was evaluated according to the below arthritic index using edema.
4 paws were evaluated as from 0 to 4 point, Total points: 16

Turning to `O=C(O)c1cc(NCCc2ccc(C(F)(F)F)cc2)ccc1O` [compound 2, 2-hydroxy-5-[2-(4-trifluoromethyl-phenyl)-ethylamino]-benzoic acid], the arthritic index entry is reported as “apparent reducing effect”.
